Legend:
DAT (h) = target: T1, DAT (h) (Homo sapiens, UniProt Q01959); test: Radioligand binding panel, DAT (h) (antagonist radioligand); settings: % inhibition of control specific binding
T1 construct: Eurofins (contract panel)
Experimental: (§1) Oxafuramine is tested at 10^−5 M, calculated as a % inhibition of control specific binding of a radioactively labeled ligand specific for each target.
(§2) This binding profile panel was broadly defined with roughly an equal number of selective, central and peripheral therapeutically relevant targets, including native animal tissues, radioligands and specific enzymes involved in cell cycle regulation in accordance with Eurofins Standard Operating Procedure (www.eurofins.fr).
(§3) For radioligand binding experiments, the half maximal inhibitory concentration (IC50) and the half maximal effective concentration (EC50) values were determined (via computer software) by nonlinear regression analysis of the competition curves using Hill equation curve fitting. The inhibition constants (Ki) were calculated using the Cheng-Prusoff equation (Ki=IC50/(1+(L/KD)), where L is the concentration of radioligand in the assay, and KD is the affinity of the radioligand for the receptor.
(§4) The results are expressed as a % control specific binding ([measured specific binding/control specific binding]×100) and as a % inhibition of control specific binding (100−[(measured specific binding/control specific binding)×100]) obtained in the presence of the test compounds. […]

NET (h) = target: T2, NET (h) (Homo sapiens, UniProt P23975); test: Radioligand binding panel, NET (h) (antagonist radioligand); settings: % inhibition of control specific binding
T2 construct: Eurofins (contract panel)
T2 sequence (P23975 whole entry): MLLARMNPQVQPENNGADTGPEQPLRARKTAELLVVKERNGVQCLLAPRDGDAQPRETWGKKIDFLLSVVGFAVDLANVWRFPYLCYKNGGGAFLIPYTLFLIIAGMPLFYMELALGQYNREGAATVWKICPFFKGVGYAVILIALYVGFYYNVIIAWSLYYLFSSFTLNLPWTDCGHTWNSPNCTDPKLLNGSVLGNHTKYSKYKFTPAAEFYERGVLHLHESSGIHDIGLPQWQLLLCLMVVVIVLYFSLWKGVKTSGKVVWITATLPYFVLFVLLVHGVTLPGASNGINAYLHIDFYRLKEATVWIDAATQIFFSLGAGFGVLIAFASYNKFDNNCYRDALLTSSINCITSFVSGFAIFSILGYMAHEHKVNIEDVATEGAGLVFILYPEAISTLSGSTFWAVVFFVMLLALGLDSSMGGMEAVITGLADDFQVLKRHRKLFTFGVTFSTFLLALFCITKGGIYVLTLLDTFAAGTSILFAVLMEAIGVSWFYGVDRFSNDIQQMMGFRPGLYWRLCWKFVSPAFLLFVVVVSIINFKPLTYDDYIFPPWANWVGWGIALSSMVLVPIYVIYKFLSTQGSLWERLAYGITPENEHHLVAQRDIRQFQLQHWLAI
Experimental: as §1, §2, §3, §4

M4 (h) = target: T3, M4 (h) (Homo sapiens, UniProt P08173); test: Radioligand binding panel, M4 (h) (antagonist radioligand); settings: % inhibition of control specific binding
T3 construct: Eurofins (contract panel)
T3 sequence (P08173 1-479): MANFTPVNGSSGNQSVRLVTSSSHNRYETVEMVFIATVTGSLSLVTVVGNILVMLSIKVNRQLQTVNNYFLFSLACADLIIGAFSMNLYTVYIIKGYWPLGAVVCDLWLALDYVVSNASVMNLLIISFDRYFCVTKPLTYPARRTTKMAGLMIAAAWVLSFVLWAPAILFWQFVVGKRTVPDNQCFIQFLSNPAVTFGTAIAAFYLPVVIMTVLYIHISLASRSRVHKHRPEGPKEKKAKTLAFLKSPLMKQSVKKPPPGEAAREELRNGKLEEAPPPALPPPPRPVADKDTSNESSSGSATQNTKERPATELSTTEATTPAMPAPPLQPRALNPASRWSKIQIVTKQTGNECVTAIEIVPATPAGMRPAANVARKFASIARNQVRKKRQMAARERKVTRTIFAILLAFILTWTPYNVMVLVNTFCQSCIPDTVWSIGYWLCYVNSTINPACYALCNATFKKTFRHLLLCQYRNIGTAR
Experimental: as §1, §2, §3, §4

M1 (h) = target: T4, M1 (h) (Homo sapiens, UniProt P11229); test: Radioligand binding panel, M1 (h) (antagonist radioligand); settings: % inhibition of control specific binding
T4 construct: Eurofins (contract panel)
T4 sequence (P11229 1-460): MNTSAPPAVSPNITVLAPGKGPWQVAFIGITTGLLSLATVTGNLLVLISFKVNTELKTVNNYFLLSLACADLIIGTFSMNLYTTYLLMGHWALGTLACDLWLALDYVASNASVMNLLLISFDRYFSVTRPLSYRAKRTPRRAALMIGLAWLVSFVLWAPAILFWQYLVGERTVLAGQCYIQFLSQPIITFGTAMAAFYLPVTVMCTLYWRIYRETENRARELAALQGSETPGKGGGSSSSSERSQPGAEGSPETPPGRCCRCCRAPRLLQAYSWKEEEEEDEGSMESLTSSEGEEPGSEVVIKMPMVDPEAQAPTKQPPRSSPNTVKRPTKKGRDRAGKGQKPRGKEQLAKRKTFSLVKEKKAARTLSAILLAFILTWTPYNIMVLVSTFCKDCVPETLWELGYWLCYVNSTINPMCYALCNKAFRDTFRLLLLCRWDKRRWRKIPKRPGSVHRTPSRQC
Experimental: as §1, §2, §3, §4

M5 (h) = target: T5, M5 (h) (Homo sapiens, UniProt P08912); test: Radioligand binding panel, M5 (h) (antagonist radioligand); settings: % inhibition of control specific binding
T5 construct: Eurofins (contract panel)
T5 sequence (P08912 1-532): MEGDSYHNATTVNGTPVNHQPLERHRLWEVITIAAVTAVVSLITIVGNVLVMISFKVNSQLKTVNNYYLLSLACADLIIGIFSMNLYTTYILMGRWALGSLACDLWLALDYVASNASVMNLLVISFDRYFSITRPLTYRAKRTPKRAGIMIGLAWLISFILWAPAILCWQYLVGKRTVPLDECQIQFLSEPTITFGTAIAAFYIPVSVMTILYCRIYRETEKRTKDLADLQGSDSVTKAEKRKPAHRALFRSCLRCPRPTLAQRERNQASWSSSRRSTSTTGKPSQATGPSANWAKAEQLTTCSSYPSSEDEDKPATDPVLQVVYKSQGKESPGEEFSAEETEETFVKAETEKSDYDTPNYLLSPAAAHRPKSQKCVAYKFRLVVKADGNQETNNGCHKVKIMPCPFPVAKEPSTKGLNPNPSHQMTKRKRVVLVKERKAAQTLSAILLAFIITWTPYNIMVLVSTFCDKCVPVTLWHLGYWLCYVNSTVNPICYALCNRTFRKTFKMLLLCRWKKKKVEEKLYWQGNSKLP
Experimental: as §1, §2, §3, §4

GABA-A1 = target: T6, GABA-A1 (Homo sapiens, UniProt P14867+P47870); test: Radioligand binding panel, GABA-A1 (antagonist radioligand); settings: 10^−5 M; % inhibition of control specific binding
T6 construct: Eurofins (contract panel)
T6 sequence (P14867 28-456): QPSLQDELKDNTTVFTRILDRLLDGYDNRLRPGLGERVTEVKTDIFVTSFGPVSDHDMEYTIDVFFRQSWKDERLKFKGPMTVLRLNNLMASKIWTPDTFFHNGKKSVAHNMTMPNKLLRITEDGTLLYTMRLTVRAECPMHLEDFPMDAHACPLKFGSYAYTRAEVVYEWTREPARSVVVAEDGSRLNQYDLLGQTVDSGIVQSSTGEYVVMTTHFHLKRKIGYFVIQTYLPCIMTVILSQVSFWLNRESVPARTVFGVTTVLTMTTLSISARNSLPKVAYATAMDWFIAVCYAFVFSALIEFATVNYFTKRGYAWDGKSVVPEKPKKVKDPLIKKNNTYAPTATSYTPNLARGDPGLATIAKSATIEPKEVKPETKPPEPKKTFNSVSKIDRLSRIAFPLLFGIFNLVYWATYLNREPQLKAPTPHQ
T6 sequence (P47870 25-512 limits assumed): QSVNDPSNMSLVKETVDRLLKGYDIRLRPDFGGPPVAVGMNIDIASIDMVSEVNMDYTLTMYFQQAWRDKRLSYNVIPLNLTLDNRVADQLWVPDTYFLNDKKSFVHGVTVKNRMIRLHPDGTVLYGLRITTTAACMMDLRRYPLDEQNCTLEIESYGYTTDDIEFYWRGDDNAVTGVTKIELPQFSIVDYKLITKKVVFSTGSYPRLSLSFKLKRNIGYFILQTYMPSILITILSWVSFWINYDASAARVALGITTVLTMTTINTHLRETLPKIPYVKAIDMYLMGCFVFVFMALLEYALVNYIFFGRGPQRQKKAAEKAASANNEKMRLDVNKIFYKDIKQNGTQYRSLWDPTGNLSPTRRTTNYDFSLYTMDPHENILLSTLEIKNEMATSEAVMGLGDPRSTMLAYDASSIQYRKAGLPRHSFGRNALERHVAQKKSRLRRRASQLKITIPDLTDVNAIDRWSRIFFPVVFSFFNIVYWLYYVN
T6 sequence (P18507 40-475 partner): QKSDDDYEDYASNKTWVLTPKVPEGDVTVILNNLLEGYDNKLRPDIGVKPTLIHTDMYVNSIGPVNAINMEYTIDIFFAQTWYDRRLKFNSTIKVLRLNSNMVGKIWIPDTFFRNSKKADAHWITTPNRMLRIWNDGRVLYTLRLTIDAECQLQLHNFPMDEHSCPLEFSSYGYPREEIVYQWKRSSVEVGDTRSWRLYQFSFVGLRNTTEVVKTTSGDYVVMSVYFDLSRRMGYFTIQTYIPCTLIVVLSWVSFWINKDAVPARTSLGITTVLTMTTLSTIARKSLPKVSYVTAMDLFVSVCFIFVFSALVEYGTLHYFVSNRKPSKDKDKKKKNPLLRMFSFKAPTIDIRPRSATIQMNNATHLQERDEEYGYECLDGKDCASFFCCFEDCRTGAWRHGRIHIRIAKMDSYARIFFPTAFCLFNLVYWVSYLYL
Experimental: as §1, §2, §3, §4

[1] = Body weight of the mice in the NOR study; type: in vivo, C57BL/6J, male; settings: mean, N = 16
Excerpt: Statistical analyses: • Read-outs: DI, N-F, ST, CT, N, F • Unpaired Student's t test: Donep 2 group vs. Control group. • One-way ANOVA, Dunnett test: • NLS-12 groups vs. Control group. • NLS-12 groups vs. Donep 2 group. • Read-outs: DI and N-F, for all groups, paired Student's t test, difference vs. 0. • Body weight: one-way ANOVA.

T1 sequence (Q01959 whole entry): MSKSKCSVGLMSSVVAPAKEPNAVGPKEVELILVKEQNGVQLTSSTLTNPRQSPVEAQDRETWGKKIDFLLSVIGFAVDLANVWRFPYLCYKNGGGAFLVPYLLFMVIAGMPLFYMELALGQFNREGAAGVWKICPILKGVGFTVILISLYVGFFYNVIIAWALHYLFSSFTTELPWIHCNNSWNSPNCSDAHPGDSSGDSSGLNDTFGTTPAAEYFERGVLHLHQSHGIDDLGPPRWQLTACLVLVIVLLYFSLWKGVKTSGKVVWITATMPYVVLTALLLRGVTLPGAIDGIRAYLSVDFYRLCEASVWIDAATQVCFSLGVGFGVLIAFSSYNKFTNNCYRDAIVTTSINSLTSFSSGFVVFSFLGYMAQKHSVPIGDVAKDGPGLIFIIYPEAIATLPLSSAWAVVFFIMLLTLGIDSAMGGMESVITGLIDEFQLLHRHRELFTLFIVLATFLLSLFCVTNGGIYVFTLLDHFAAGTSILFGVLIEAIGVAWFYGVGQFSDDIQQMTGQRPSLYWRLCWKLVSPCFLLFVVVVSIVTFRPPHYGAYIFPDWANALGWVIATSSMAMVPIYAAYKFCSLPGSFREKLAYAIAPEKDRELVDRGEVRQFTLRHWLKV

CCN[C@H](Cc1ccccc1)[C@H]1CCCO1 [Oxafuramine, (1R)—N-ethyl-1-[(2R)-oxolan-2-yl]-2-phenylethanamine]
inhibition at 10 µM (DAT (h); 10^−5 M): 94.1% | % Inhibition at 10^−5M, DAT (h) (antagonist radioligand) (DAT (h)): appreciable potencies | inhibition at 10 µM (NET (h); 10^−5 M): 53.3% | % Inhibition at 10^−5M, NET (h) (antagonist radioligand) (NET (h)): appreciable potencies | inhibition at 10 µM (M4 (h); 10^−5 M): ~51% | % Inhibition at 10^−5M, M4 (h) (antagonist radioligand) (M4 (h)): 50.8% | inhibition at 10 µM (M1 (h); 10^−5 M): ~30% | % Inhibition at 10^−5M, M1 (h) (antagonist radioligand) (M1 (h)): 29.7% | inhibition at 10 µM (M5 (h); 10^−5 M): ~25% | % Inhibition at 10^−5M, M5 (h) (antagonist radioligand) (M5 (h)): 25.4% | inhibition at 10 µM (GABA-A1): 19.2% | BW Body weight ([1]; NLS-12 1 mg/kg i.p. group): 22.8 g | BW Body weight ([1]; NLS-12 4 mg/kg i.p. group): 23.5 g | BW Body weight ([1]; NLS-12 8 mg/kg i.p. group): 22.9 g

Source: US20250268859A1, “OXAFURAMINE, (1R)-N-ETHYL-1-[(2R)-OXOLAN-2-YL]-2-[…], HYDROCHLORIDE AND DERIVATIVES THEREOF FOR TREATING ALZHEIMER'S DISEASE (AD), […] […], […] WITH LEWY BODIES (DLB), MIXED […], FRON[…] DEGENERATION (FTLD), AND PARKINSON'S DISEASE (PD)” (NLS Pharmaceutics AG, priority 2021, published 2025)
